Experimental data: ChEMBL document CHEMBL2396647, “The synergic modeling for the binding of fluoroquinolone antibiotics to the hERG potassium channel” (Bioorg Med Chem Lett, 2013)

Tests used:
Assay type in all cases: cell-based
[1] = molecular target: T1, Voltage-gated inwardly rectifying potassium channel KCNH2 (Homo sapiens, UniProt Q12809, F656A); assay: Binding affinity to human ERG F656A tetrameric mutant expressed in HEK293 cells assessed as inhibition of tail current measured upon repolarization to -120 mV by patch clamp method
[2] = molecular target: T1, Voltage-gated inwardly rectifying potassium channel KCNH2; assay: Binding affinity to human ERG F656A tandem dimeric mutant expressed in HEK293 cells assessed as inhibition of tail current measured upon repolarization to -120 mV by patch clamp method
[3] = molecular target: Voltage-gated inwardly rectifying potassium channel KCNH2 (Homo sapiens, UniProt Q12809, S624A); assay: Binding affinity to human ERG S624A tetrameric mutant expressed in HEK293 cells assessed as inhibition of tail current measured upon repolarization to -40 mV by patch clamp method
[4] = molecular target: T2, Voltage-gated inwardly rectifying potassium channel KCNH2 (Homo sapiens, UniProt Q12809, Y652A); assay: Binding affinity to human ERG Y652A tetrameric mutant expressed in HEK293 cells assessed as inhibition of tail current measured upon repolarization to -40 mV by patch clamp method
[5] = molecular target: T2, Voltage-gated inwardly rectifying potassium channel KCNH2; assay: Binding affinity to human ERG Y652A tandem dimeric mutant expressed in HEK293 cells assessed as inhibition of tail current measured upon repolarization to -40 mV by patch clamp method
[6] = molecular target: Voltage-gated inwardly rectifying potassium channel KCNH2 (Homo sapiens, UniProt Q12809); assay: Binding affinity to wild type human ERG expressed in HEK293 cells assessed as inhibition of tail current measured upon repolarization to -40 mV by patch clamp method
Chain of Voltage-gated inwardly rectifying potassium channel KCNH2 (Homo sapiens, UniProt Q12809) (Q12809 whole entry): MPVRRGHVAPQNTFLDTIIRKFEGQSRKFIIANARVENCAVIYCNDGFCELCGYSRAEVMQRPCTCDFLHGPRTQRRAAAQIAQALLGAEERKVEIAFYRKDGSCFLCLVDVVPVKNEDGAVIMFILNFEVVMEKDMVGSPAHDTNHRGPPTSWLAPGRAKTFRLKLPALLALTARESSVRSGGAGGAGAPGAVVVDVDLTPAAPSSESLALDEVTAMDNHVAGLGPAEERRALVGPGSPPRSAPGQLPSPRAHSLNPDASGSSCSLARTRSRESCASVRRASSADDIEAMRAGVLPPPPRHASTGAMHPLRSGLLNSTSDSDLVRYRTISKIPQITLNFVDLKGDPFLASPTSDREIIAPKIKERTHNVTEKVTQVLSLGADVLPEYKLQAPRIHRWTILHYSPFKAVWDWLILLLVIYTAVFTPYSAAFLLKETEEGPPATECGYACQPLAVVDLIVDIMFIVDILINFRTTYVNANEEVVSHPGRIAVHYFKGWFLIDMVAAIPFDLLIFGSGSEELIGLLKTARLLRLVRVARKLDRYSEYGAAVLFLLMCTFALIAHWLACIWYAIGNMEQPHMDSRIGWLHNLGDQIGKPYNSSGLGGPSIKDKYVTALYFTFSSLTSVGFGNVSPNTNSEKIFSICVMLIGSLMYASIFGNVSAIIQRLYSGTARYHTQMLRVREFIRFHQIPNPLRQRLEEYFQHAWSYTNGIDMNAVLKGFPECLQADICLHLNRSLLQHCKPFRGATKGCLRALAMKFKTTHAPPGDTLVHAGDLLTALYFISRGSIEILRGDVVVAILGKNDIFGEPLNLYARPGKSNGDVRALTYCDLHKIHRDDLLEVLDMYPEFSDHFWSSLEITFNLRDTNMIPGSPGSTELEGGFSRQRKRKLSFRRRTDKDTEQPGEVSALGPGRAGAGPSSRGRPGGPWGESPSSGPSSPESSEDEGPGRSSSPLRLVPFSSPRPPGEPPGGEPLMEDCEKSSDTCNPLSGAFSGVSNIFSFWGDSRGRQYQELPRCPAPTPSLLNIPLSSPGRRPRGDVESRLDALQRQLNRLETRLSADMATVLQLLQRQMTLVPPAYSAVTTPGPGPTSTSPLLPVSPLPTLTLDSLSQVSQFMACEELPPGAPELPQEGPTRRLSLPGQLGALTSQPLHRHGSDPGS

T2 sequence (Q12809 whole entry Y652A): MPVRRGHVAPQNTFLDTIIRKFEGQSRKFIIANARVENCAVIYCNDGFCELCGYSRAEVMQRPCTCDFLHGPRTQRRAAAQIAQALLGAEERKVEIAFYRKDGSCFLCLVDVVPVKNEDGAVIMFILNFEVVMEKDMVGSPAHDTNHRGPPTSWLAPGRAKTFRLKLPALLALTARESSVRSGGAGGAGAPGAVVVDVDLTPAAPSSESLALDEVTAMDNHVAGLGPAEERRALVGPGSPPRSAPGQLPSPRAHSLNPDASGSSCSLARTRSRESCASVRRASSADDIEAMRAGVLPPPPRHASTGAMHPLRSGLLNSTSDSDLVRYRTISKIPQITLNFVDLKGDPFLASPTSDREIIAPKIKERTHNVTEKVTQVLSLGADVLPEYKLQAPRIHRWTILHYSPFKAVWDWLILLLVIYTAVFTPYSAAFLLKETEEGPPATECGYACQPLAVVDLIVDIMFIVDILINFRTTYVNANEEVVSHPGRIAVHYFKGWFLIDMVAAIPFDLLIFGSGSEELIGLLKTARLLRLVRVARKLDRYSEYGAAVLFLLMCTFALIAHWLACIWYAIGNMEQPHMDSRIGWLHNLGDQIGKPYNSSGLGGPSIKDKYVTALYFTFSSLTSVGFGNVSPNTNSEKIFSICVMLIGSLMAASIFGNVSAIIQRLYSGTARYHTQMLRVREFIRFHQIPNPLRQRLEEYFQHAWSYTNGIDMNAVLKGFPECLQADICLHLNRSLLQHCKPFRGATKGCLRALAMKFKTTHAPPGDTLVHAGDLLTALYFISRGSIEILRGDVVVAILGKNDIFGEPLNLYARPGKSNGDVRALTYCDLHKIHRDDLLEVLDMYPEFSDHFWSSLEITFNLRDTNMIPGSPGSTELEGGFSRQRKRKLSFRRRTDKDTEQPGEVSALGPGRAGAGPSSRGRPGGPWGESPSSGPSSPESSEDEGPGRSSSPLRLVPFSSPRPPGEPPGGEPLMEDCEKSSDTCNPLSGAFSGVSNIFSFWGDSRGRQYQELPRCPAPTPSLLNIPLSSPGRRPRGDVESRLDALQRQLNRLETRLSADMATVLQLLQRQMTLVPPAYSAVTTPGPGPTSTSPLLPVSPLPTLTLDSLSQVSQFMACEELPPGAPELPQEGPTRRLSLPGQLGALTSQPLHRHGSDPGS
T1 sequence (Q12809 whole entry F656A): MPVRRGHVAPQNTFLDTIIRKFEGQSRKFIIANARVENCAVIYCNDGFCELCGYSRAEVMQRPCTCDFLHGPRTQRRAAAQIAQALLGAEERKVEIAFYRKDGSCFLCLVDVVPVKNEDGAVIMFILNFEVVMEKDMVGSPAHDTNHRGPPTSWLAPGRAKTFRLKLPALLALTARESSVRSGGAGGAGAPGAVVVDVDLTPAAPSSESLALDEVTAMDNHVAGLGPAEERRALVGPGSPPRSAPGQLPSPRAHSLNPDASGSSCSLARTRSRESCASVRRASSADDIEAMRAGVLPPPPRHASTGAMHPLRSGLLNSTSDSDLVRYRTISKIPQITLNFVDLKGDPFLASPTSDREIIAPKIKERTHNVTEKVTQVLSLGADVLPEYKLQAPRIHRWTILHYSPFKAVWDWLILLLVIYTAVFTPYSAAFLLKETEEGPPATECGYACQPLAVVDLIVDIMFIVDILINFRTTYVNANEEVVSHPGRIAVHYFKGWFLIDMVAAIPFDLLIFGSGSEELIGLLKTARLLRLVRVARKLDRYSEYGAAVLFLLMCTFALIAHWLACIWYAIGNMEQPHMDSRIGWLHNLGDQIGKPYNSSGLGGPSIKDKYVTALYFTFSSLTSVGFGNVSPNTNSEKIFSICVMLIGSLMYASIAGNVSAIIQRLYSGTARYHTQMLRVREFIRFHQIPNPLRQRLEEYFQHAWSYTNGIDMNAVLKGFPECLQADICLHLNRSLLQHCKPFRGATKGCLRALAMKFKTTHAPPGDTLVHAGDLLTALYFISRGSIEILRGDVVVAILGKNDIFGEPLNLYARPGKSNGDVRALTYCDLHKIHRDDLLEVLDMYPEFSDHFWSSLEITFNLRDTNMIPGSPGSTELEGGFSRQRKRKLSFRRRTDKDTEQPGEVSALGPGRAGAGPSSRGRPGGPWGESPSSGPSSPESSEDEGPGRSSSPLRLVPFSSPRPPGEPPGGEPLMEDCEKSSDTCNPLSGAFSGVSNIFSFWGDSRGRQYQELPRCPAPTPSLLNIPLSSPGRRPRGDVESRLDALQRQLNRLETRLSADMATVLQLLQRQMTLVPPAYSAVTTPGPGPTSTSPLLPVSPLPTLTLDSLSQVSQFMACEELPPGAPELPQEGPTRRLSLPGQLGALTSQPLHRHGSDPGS
Chain of Voltage-gated inwardly rectifying potassium channel KCNH2 (Homo sapiens, UniProt Q12809, S624A) (Q12809 whole entry S624A): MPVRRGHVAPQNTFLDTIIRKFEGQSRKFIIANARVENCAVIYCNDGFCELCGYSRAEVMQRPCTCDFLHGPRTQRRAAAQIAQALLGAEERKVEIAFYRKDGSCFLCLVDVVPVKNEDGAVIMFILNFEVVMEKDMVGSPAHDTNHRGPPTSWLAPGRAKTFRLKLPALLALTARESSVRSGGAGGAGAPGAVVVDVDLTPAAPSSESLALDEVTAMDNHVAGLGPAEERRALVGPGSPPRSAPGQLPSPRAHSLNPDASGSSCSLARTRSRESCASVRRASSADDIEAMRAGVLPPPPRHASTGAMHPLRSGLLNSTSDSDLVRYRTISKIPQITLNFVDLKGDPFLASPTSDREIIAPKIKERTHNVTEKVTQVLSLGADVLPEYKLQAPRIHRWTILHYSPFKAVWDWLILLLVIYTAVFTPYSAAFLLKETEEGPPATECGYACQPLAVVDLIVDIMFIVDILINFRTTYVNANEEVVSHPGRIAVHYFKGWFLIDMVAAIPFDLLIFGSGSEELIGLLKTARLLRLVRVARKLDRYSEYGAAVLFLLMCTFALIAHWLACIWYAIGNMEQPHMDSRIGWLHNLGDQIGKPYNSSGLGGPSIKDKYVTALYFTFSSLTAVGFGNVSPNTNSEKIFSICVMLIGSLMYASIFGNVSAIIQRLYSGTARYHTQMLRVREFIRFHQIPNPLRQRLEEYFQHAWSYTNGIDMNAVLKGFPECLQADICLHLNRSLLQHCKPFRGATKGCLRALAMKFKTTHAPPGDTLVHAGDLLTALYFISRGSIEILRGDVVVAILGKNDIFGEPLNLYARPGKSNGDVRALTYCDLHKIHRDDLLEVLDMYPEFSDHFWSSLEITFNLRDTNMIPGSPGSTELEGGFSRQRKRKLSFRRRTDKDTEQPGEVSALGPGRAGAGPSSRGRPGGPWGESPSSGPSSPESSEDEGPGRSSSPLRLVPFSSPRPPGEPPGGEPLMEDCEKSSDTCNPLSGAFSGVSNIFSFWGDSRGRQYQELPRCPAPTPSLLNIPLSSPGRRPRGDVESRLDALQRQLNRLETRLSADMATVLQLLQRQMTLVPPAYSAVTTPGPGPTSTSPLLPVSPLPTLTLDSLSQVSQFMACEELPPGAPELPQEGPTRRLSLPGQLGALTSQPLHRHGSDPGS

Which results are given for `C[C@@H]1CN(c2c(F)c(N)c3c(=O)c(C(=O)O)cn(C4CC4)c3c2F)C[C@H](C)N1` [SPARFLOXACIN]?
IC50 [1]: > 250 µM; IC50 [2]: 33.6 µM; IC50 [3]: 46.9 µM; IC50 [4]: > 250 µM; IC50 [5]: 128 µM; IC50 [6]: 21.7 µM
